The record followed here is ChEMBL document CHEMBL1201862, “PubChem BioAssay data set” (2004).

Test in all cases: inhibition of tumour cell growth, NCI panel, 48 h
For test [1], the system named is LOX IMVI.
The test system of test [2] is A498.
Test [3] concerns OVCAR-5.
The subject of test [4] is SK-OV-3.
For test [5], the system named is RPMI-8226.
Test [6] relates to SK-MEL-5.
Test [7] has as its system UACC-257.
Test [8] concerns HCC 2998.
Test [9] has as its system SW-620.
Test [10] has as its system SNB-75.
Test [11] concerns SK-MEL-2.
In test [12] the test system is OVCAR-8.
Test [13] deals with U-251.
Test [14] has as its system T47D.
Test [15] deals with CAKI-1.
In test [16] the test system is M14.
The test system of test [17] is KM12.
Test [18] concerns SK-MEL-28.
Test [19] relates to NCI-H226.
Test [20] concerns HOP-62.

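These data come from cells grown in 96-well plates and exposed to compound for 48 hours at five concentrations. The concentration for 50% growth inhibition is given as GI50.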 Active and inactive are the calls of the source. No stated cut-off is given here; in the data, active = GI50 up to about 1.1 µM and inactive = higher. Some results are limits rather than exact numbers.

For the compound `COc1ccc(OC)c2c1C(=O)C(Cl)=C(Cl)C2=O`, the GI50 in [1] is 2.07 µM (inactive); in test [2], 20.3 µM (inactive); in [3] it was 15.7 µM (inactive); in [4], 28.4 µM (inactive); in test [5] it was 3.02 µM (inactive); in [6], 5.64 µM (inactive). Further, the GI50 was 2.19 µM (inactive) in test [7]; 17.3 µM (inactive) in [8]; 1.81 µM (inactive) in test [9]; 14.2 µM (inactive) in test [10]; 3.06 µM (inactive) in test [11]; 6.46 µM (inactive) in test [12]. The GI50 is 18 µM (inactive) in test [13]; 3.17 µM (inactive) in [14]; 2.56 µM (inactive) in [15]; 2.47 µM (inactive) in [16]; 17.3 µM (inactive) in test [17]; 3.79 µM (inactive) in test [18]. Moreover, in [19], the GI50 was 18.7 µM (inactive).
In the case of `O=C1/C(=C/C=C/c2ccccc2)N=C(c2ccccc2)N1C1Nc2cc3c(cc2S1)NC(N1C(=O)/C(=C/C=C/c2ccccc2)N=C1c1ccccc1)S3` (centres undefined), the GI50 in test [1] is 48.8 µM (inactive); in [2], 15.5 µM (inactive); in test [3], > 100 µM (inactive); in [4] it was > 100 µM (inactive); in [5], 13.2 µM (inactive); in test [6], 55 µM (inactive). In addition, the GI50 was > 100 µM (inactive) in test [7]; 11.4 µM (inactive) in test [8]; 22.4 µM (inactive) in [9]; > 100 µM (inactive) in test [11]; 44.4 µM (inactive) in test [12]; 42.4 µM (inactive) in test [13]. Besides, the GI50 is 30.3 µM (inactive) in [14]; 73.6 µM (inactive) in [15]; 26.4 µM (inactive) in test [16]; 21.7 µM (inactive) in test [17]; 38.2 µM (inactive) in test [18]; > 100 µM (inactive) in [19]. Further, the GI50 in test [20] is > 100 µM (inactive).
On to `COCN1C(=O)[C@@H]2CCCN2C(=O)c2cc(Cl)ccc21`, for which the GI50 in test [1], in test [2], in [3], in test [4], in [5] and in [6] was > 100 µM (inactive) throughout. The GI50 in test [7], in test [8], in [9], in test [10], in test [11] and in test [12] was > 100 µM (inactive) in each case. For the same compound, the GI50 in test [13], in [14], in test [15], in test [16], in test [17] and in test [18] was > 100 µM (inactive) each time. Moreover, in [20], the GI50 is > 100 µM (inactive).
As for `CCOC(=O)/C=C/[C@H](O[Si](CC)(CC)CC)C(C)(C)C`, the GI50 in [1] is 21.5 µM (inactive); in [2] it was > 100 µM (inactive); in test [3], 89.9 µM (inactive); in test [4], > 100 µM (inactive); in [5], 20.6 µM (inactive); in test [6], 45.3 µM (inactive). For the same compound, the GI50 in [7] is 31 µM (inactive); in test [8], 57.3 µM (inactive); in test [9] it was 40.7 µM (inactive); in test [10] it was > 100 µM (inactive); in test [11] it was 23.2 µM (inactive); in test [12], > 100 µM (inactive). Moreover, the GI50 in test [13] is 27.4 µM (inactive); in test [14], 67.1 µM (inactive); in test [15], > 100 µM (inactive); in test [17], > 100 µM (inactive); in test [19], > 100 µM (inactive); in test [20], 83.6 µM (inactive).
Regarding `COCc1cc2c(s1)C(=O)C1=C(C2=O)C2(C=C(Br)C(=O)C(Br)=C2)CCN1`, the GI50 in test [1] is 2.19 µM (inactive); in [2], 15.7 µM (inactive); in test [3], 15.5 µM (inactive); in test [4], 17 µM (inactive); in test [5] it was 3.25 µM (inactive); in test [6] it was 1.71 µM (inactive). Moreover, the GI50 in test [7] is 1.55 µM (inactive); in test [8] it was 11.1 µM (inactive); in test [9], 3.21 µM (inactive); in test [10], 14.6 µM (inactive); in [11], 3.55 µM (inactive); in test [12], 4.15 µM (inactive). Also, the GI50 is 11.4 µM (inactive) in test [13]; 3.06 µM (inactive) in test [14]; 20 µM (inactive) in [15]; 1.68 µM (inactive) in test [16]; 4.85 µM (inactive) in test [17]; 7.67 µM (inactive) in test [18]. In [19], the GI50 is 12.7 µM (inactive).
`COc1cc(-c2c[nH]c3ccccc23)nc(-c2c[nH]c3ccccc23)n1`: the GI50 in test [1] is 4.84 µM (inactive); in [2] it was 2.3 µM (inactive); in [3], 8.13 µM (inactive); in test [4], 10.9 µM (inactive); in [5], 2.8 µM (inactive); in [6], 5 µM (inactive). Moreover, the GI50 in [7] is 8.91 µM (inactive); in test [8] it was 4.22 µM (inactive); in [9] it was 7.62 µM (inactive); in test [10], 6.1 µM (inactive); in test [11] it was 4.94 µM (inactive); in test [12], 4.97 µM (inactive). For the same compound, the GI50 in test [13] is 4.19 µM (inactive); in test [14], 5.19 µM (inactive); in test [15] it was 5.89 µM (inactive); in [16] it was 4.07 µM (inactive); in [17], 4.18 µM (inactive); in test [20] it was 8.89 µM (inactive).
Take `Clc1nc(Cl)c(Cl)c(Cl)n1`: the GI50 is 11.3 µM (inactive) in [1]; 19.4 µM (inactive) in [2]; 20.5 µM (inactive) in test [3]; 16.6 µM (inactive) in test [4]; 43.3 µM (inactive) in [5]; 17.6 µM (inactive) in test [6]. Further, the GI50 in test [7] is 16.3 µM (inactive); in test [8], 18.7 µM (inactive); in [9] it was 6.85 µM (inactive); in test [10], 17.8 µM (inactive); in test [12], 26.4 µM (inactive); in test [13], 16.7 µM (inactive). In addition, the GI50 is 18.2 µM (inactive) in [14]; 17.8 µM (inactive) in [15]; 17 µM (inactive) in test [16]; 13.6 µM (inactive) in test [17]; 19.6 µM (inactive) in test [18]; 20.7 µM (inactive) in [19]. Besides, the GI50 in [20] was 19.6 µM (inactive).
Take `COC(=O)C1(Cc2ccc3c(c2)CCC3)Cc2ccccc2C1`: the GI50 is 14.7 µM (inactive) in test [1]; 32.8 µM (inactive) in test [2]; 39.3 µM (inactive) in test [3]; 29.7 µM (inactive) in test [4]; 17.9 µM (inactive) in test [5]; 26.4 µM (inactive) in test [7]. The GI50 is 32 µM (inactive) in test [8]; 21.9 µM (inactive) in [9]; 55.7 µM (inactive) in test [10]; 25.9 µM (inactive) in [11]; 50.6 µM (inactive) in test [12]; 42.3 µM (inactive) in [13]. In addition, the GI50 is 24.6 µM (inactive) in test [14]; 36.2 µM (inactive) in test [15]; 39.7 µM (inactive) in test [16]; 37.2 µM (inactive) in [17]; 74.5 µM (inactive) in [18]; 29.9 µM (inactive) in test [19]. For the same compound, the GI50 in test [20] is 43.6 µM (inactive).
For `NC1C/C(=N\O)c2c(Cl)sc(Cl)c21` (centres undefined), the GI50 is 3.11 µM (inactive) in test [1]; 20.2 µM (inactive) in [2]; 21.7 µM (inactive) in test [3]; > 100 µM (inactive) in test [4]; 10.2 µM (inactive) in test [5]; 17.1 µM (inactive) in test [7]. The GI50 in test [8] is 92.7 µM (inactive); in [9] it was 17.9 µM (inactive); in test [10], 25.2 µM (inactive); in test [11], 19.7 µM (inactive); in test [12], 15.2 µM (inactive); in [14] it was 18.7 µM (inactive). In addition, the GI50 in test [15] was 18 µM (inactive); in [16], 16.8 µM (inactive); in [17] it was 12 µM (inactive); in test [18], 19.3 µM (inactive); in test [19], 21.9 µM (inactive); in [20] it was 21.5 µM (inactive).
With `Nn1c(Nc2ccc(S(N)(=O)=O)cc2)nnc(/C=C/c2c(O)ccc3ccccc23)c1=O`, the GI50 in [1] is 12.9 µM (inactive); in [2], 26.7 µM (inactive); in [3], 21.6 µM (inactive); in test [4] it was 24.2 µM (inactive); in test [5] it was 10.7 µM (inactive); in [6] it was 14.5 µM (inactive). The GI50 in [7] is 27.5 µM (inactive); in test [8] it was 18.8 µM (inactive); in test [9], 16.4 µM (inactive); in [11], 39.8 µM (inactive); in test [12], 3.08 µM (inactive); in test [13], 39.9 µM (inactive). Further, the GI50 was 15 µM (inactive) in test [14]; 22.9 µM (inactive) in test [15]; 26.4 µM (inactive) in test [16]; 19.6 µM (inactive) in [17]; 19.3 µM (inactive) in test [18]; 20.3 µM (inactive) in test [20].
With `O=C1/C(=C/c2ccc(Cl)cc2)CNC/C1=C\c1ccc(Cl)cc1`, the GI50 was 1.57 µM (inactive) in [1]; 4.65 µM (inactive) in test [2]; 4.79 µM (inactive) in test [3]; 12.1 µM (inactive) in [4]; 0.5 µM (active) in [5]; 4.44 µM (inactive) in test [6]. Further, the GI50 was 1.57 µM (inactive) in [8]; 0.638 µM (active) in test [9]; 4.36 µM (inactive) in test [10]; 2.04 µM (inactive) in [12]; 0.782 µM (active) in [13]; 5 µM (inactive) in test [14]. Besides, the GI50 in test [15] was 1.58 µM (inactive); in [16] it was 3.71 µM (inactive); in [17], 1.22 µM (inactive); in test [18], 1.5 µM (inactive); in test [19], 2.44 µM (inactive); in test [20], 2.43 µM (inactive).
